What follows are compounds tested on HBV (assay: HBV replication inhibition assay (BDNA assay) in HepG2.2.15 cells). Conditions: Hepatitis B virus, HepG2.2.15, 144 h, 6 days treatment, encapsidated HBV DNA in supernatant by branched DNA QuantiGene assay.
Assay type: cell-based
Excerpt: HBV replication inhibition by the compounds of this invention could be determined in cells infected or transfected with HBV, or cells with stably integrated HBV, such as HepG2.2.15 cells (Sells et al. 1987). In this example, HepG2.2.15 cells were maintained in cell culture medium containing 10% fetal bovine serum (FBS), Geneticin, L-glutamine, penicillin and streptomycin. HepG2.2.15 cells could be seeded in 96-well plates at a density of 40,000 cells/well and be treated with serially diluted compounds at a final DMSO concentration of 0.5% either alone or in combination by adding drugs in a checker box format. Cells were incubated with compounds for three days, after which medium was removed and fresh medium containing compounds was added to cells and incubated for another three days. At day 6, supernatant was removed and treated with DNase at 37° C. for 60 minutes, followed by enzyme inactivation at 75° C. for 15 minutes. Encapsidated HBV DNA was released from the virions and covalently linked HBV polymerase by incubating in lysis buffer (Affymetrix QS0010) containing 2.5 μg proteinase K at 50° C. for 40 minutes. HBV DNA was denatured by addition of 0.2 M NaOH and detected using a branched DNA (BDNA) QuantiGene assay kit according to manufacturer recommendation (Affymetrix). HBV DNA levels could also be quantified using qPCR, based on amplification of encapsidated HBV DNA extraction with QuickExtraction Solution (Epicentre Biotechnologies) and amplification of HBV DNA using HBV specific PCR probes that can hybridize to HBV DNA and a fluorescently labeled probe for quantitation. In addition, cell viability of HepG2.2.15 cells incubated with test compounds alone or in combination was determined by using CellTitre-Glo reagent according to the manufacturer protocol (Promega). The mean background signal from wells containing only culture medium was subtracted from all other samples, and percent inhibition at each compound concentration was calculated by normalizing to signals from HepG2.2.15 cells treated with 0.5% DMSO using equation E1. % inhibition=(DMSOave−Xi)/DMSOave×100% E1: where DMSOave is the mean signal calculated from the wells that were treated with DMSO control (0% inhibition control) and Xi is the signal measured from the individual wells. EC50 values, effective concentrations that achieved 50% inhibitory effect, were determined by non-linear fitting using Graphpad Prism software (San Diego, Calif.) and equation E2 Y=Y min+(Y max−Y min)/(1+10(Log EC50−X)×HillSlope) E2: […]
where Y represents percent inhibition values and X represents the logarithm of compound concentrations.
Selected compounds of the invention were assayed in the HBV replication assay (BDNA assay), as described above and a representative group of these active compounds is shown in Table 3. […] In Table 3, “A” represents 0.01<EC50<0.10; “B” represents 0.10≤EC50<0.50; and “C” represents 0.50≤EC50<1.0; (‘+’ indicates >50% activity at 10 μM).
In the case of C=C(C)c1n[nH]c2c1CN(C(=O)Nc1cccc(C)c1)CC2 [Compound 549, 3-isopropenyl-N-(m-tolyl)-1,4,6,7-tetrahydropyrazolo[4,3-c]pyridine-5-carboxamide], the EC50 is reported as 100 to 500 nM. In the case of O=C(Nc1cccc(Cl)c1)N1CCc2[nH]nc(C3CCC3)c2C1 [Compound 554, N-(3-chlorophenyl)-3-cyclobutyl-1,4,6,7-tetrahydropyrazolo[4,3-c]pyridine-5-carboxamide], the EC50 is reported as 10 to 100 nM. Compound CCC(C)(C)c1n[nH]c2c1CN(C(=O)Nc1cccc(Cl)c1)CC2 [Compound 604, N-(3-chlorophenyl)-3-(1,1-dimethylpropyl)-1,4,6,7-tetrahydropyrazolo [4,3-c]pyridine-5-carboxamide] has an EC50 of 100 to 500 nM. Compound CCCC(F)(F)c1n[nH]c2c1CN(C(=O)Nc1cccc(Cl)c1)CC2 [Compound 642, N-(3-chlorophenyl)-3-(1,1-difluorobutyl)-1,4,6,7-tetrahydropyrazolo[4,3-c]pyridine-5-carboxamide] has an EC50 of 10 to 100 nM. With CCCc1n[nH]c2c1CN(C(=O)Nc1cccc(Cl)c1)CC2 [Compound 644, N-(3-chlorophenyl)-3-propyl-1,4,6,7-tetrahydropyrazolo[4,3-c]pyridine-5-carboxamide] the EC50 was 100 to 500 nM. With O=C(Nc1ccnc(Cl)c1F)N1CCc2[nH]nc(C3CCC3)c2C1 [Compound 660] the EC50 was 100 to 500 nM. For Cc1cccc(NC(=O)N2CCc3[nH]nc(C4CCC4)c3C2)c1 [Compound 661], the EC50 was 100 to 500 nM. With O=C(Nc1cccc(Br)c1F)N1CCc2[nH]nc(C3CCC3)c2C1 [Compound 662] the EC50 was 10 to 100 nM. With O=C(Nc1cccc(Br)c1)N1CCc2[nH]nc(C3CCC3)c2C1 [Compound 663] the EC50 was 10 to 100 nM. For O=C(Nc1ccnc(Br)c1F)N1CCc2[nH]nc(C3CCC3)c2C1 [Compound 664], the EC50 was 100 to 500 nM. O=C(Nc1ccc(F)c(Cl)c1)N1CCc2[nH]nc(C3CCC3)c2C1 [Compound 665] was tested, and the EC50 was 10 to 100 nM. For Cc1cc(NC(=O)N2CCc3[nH]nc(C4CCC4)c3C2)ccc1F [Compound 666], the EC50 was 10 to 100 nM. With O=C(Nc1ccc(F)c(Br)c1)N1CCc2[nH]nc(C3CCC3)c2C1 [Compound 667] the EC50 was 10 to 100 nM. N#Cc1cc(NC(=O)N2CCc3[nH]nc(C4CCC4)c3C2)ccc1F [Compound 668] showed an EC50 of 10 to 100 nM. For O=C(Nc1ccc(F)c(F)c1)N1CCc2[nH]nc(C3CCC3)c2C1 [Compound 669], the EC50 was 100 to 500 nM. O=C(Nc1cccc(Cl)c1)N1CCc2[nH]nc(C3CC=CC3)c2C1 [Compound 693, N-(3-chlorophenyl)-3-cyclopent-3-en-1-yl-1,4,6,7-tetrahydropyrazolo[4,3-c]pyridine-5-carboxamide] gave an EC50 of 10 to 100 nM. In the case of CC1(c2n[nH]c3c2CN(C(=O)Nc2cccc(Cl)c2)CC3)CCC1 [Compound 694, N-(3-chlorophenyl)-3-(1-methylcyclobutyl)-1,4,6,7-tetrahydropyrazolo[4,3-c]pyridine-5-carboxamide], the EC50 is reported as 10 to 100 nM. CCC(F)(F)c1n[nH]c2c1CN(C(=O)Nc1cccc(Cl)c1)CC2 [Compound 696, N-(3-chlorophenyl)-3-(1,1-difluoropropyl)-1,4,6,7-tetra hydropyrazolo[4,3-c]pyridine-5-carboxamide] was tested, and the EC50 was 100 to 500 nM. O=C(Nc1cccc(Cl)c1)N1CCc2[nH]nc(C3(C(F)(F)F)CC3)c2C1 [Compound 700, N-(3-chlorophenyl)-3-[1-(trifluoromethyl)cyclopropyl]-1,4,6,7-tetrahydropyrazolo[4,3-c]pyridine-5-carboxamide] gave an EC50 of 100 to 500 nM. In the case of O=C(Nc1cccc(Cl)c1)N1CCc2[nH]nc(C3CCC(O)C3)c2C1 (stereo not drawn) [Compound 742, N-(3-chlorophenyl)-3-(3-hydroxycyclopentyl)-1,4,6,7-tetrahydropyrazolo[4,3-c] pyridine-5-carboxamide], the EC50 is reported as 100 to 500 nM. O=C(Nc1cccc(Cl)c1)N1CCc2[nH]nc(C3=CC(F)CC3)c2C1 (stereo not drawn) [Compound 744, N-(3-chlorophenyl)-3-(3-fluorocyclopenten-1-yl)-1,4,6,7-tetrahydropyrazolo[4,3-c]pyridine-5-carboxamide] gave an EC50 of 10 to 100 nM. For O=C(Nc1ccnc(Cl)c1F)N1CCc2[nH]nc(C34CCCC3C4)c2C1 (stereo not drawn) [Compound 782], the EC50 was 10 to 100 nM. With Cc1cccc(NC(=O)N2CCc3[nH]nc(C45CCCC4C5)c3C2)c1 (stereo not drawn) [Compound 783] the EC50 was 10 to 100 nM. Work on O=C(Nc1cccc(Br)c1F)N1CCc2[nH]nc(C34CCCC3C4)c2C1 (stereo not drawn) [Compound 784] yielded an EC50 of 10 to 100 nM. Compound O=C(Nc1cccc(Br)c1)N1CCc2[nH]nc(C34CCCC3C4)c2C1 (stereo not drawn) [Compound 785] has an EC50 of 10 to 100 nM. For N#Cc1cccc(NC(=O)N2CCc3[nH]nc(C45CCCC4C5)c3C2)c1F (stereo not drawn) [Compound 786], the EC50 was 10 to 100 nM. O=C(Nc1ccc(F)c(Cl)c1)N1CCc2[nH]nc(C34CCCC3C4)c2C1 (stereo not drawn) [Compound 787] was tested, and the EC50 was 10 to 100 nM. Cc1cc(NC(=O)N2CCc3[nH]nc(C45CCCC4C5)c3C2)ccc1F (stereo not drawn) [Compound 788] showed an EC50 of 10 to 100 nM. O=C(Nc1ccc(F)c(Br)c1)N1CCc2[nH]nc(C34CCCC3C4)c2C1 (stereo not drawn) [Compound 789] was tested, and the EC50 was 10 to 100 nM. N#Cc1cc(NC(=O)N2CCc3[nH]nc(C45CCCC4C5)c3C2)ccc1F (stereo not drawn) [Compound 790] gave an EC50 of 10 to 100 nM. For O=C(Nc1ccnc(Br)c1F)N1CCc2[nH]nc(C34CCCC3C4)c2C1 (stereo not drawn) [Compound 791], the EC50 was 10 to 100 nM. For O=C(Nc1ccc(F)c(F)c1)N1CCc2[nH]nc(C34CCCC3C4)c2C1 (stereo not drawn) [Compound 792], the EC50 was 100 to 500 nM. Compound O=C(Nc1cccc(Cl)c1)N1CCc2[nH]nc(C3CCCO3)c2C1 (stereo not drawn) [Compound 861, N-(3-chlorophenyl)-3-tetrahydrofuran-2-yl-1,4,6,7-tetrahydropyrazolo[4,3-c]pyridine-5-carboxamide] has an EC50 of 10 to 100 nM.

Reference: US10544141B2, “Derivatives and methods of treating hepatitis B infections” (Novira Therapeutics, Inc., priority 2014, dated 2020)
